pIC50: −log10 of the molar value. Where two headings read alike, the source gives them in different places.
Experiments:
[1] = target: T1, BRAFV600E full-length (amino acids 2-766) (Homo sapiens, UniProt P15056, V600E); assay: B-Raf Accelerated MEK ATPase assay (BRAMA); assay type: biochemical; conditions: for IC50: Table 1b, read-out: B-Raf pIC50 (converted)
T1 construct: His6-tagged BRAFV600E full-length (amino acids 2-766); His6; made in house; host or cells: baculovirus expression system (insect cells)
Method in brief: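 Coupled-enzyme readout: ADP generated by MEK-mediated ATP hydrolysis, uncoupled from ERK phosphorylation, is linked to NADH oxidation through pyruvate kinase and lactate dehydrogenase.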

[2] = tested on: Human melanoma cancer cells (SK-MEL-28); assay: Cell growth inhibition assay (CellTiter-Glo), SK-MEL-28; assay type: cell-based
[3] = tested on: Human colon tumor cells (Colo205); assay: Cell growth inhibition assay (CellTiter-Glo), Colo205; assay type: cell-based
Method in brief: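 Read-out was CellTiter-Glo luminescence (total ATP as a cell-number surrogate), expressed as % inhibition against DMSO vehicle wells. Before that, cells grown in RPMI/10% FBS were treated for 3 days at 37 °C with ten 1:3-spaced compound concentrations, final DMSO 0.2%.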

[4] = B-Raf Activity, Table 1a, highest pIC50 for the one or more runs, categorized
[5] = B-Raf pIC50, Table 1b, later runs, average pIC50 for the one or more runs, categorized
[6] = SK-MEL-28, 72 h, Table 3a, 3 days incubation, read-out: Activity in SK-MEL-28 Tumor Cells
[7] = SK-MEL-28, Table 3b, later runs, average for the one or more runs, categorized, read-out: IC50 for SK-MEL-28
[8] = COLO 205, 72 h, Table 2a, 3 days incubation, read-out: Activity in Colo205 Tumor Cells
[9] = COLO 205, Table 2b, later runs, average for the one or more runs, categorized, read-out: IC50 for Colo205
[10] = later runs, average pIC50 for the one or more runs, categorized

T1 sequence (P15056 2-766 V600E): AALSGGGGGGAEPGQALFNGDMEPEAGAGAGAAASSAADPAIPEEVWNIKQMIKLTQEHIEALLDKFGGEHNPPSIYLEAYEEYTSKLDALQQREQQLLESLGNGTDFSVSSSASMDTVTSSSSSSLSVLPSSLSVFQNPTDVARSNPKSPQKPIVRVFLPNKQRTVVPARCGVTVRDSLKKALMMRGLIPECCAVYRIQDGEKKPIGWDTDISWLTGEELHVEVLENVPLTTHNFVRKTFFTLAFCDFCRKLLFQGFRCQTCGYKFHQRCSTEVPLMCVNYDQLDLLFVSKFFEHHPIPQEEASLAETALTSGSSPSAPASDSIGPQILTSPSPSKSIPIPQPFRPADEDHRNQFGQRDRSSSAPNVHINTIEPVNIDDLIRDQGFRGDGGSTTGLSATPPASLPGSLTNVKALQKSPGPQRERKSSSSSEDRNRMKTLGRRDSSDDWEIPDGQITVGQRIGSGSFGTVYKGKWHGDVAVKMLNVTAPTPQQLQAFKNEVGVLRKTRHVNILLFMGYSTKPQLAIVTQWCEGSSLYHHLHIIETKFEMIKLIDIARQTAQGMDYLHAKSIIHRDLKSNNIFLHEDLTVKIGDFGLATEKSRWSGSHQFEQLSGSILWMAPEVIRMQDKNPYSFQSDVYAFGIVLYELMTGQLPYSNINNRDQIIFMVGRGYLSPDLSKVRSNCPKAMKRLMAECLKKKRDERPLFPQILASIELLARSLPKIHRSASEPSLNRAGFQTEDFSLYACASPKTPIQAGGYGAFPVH

SMILES	pIC50 [1, 4]	pIC50 [1, 5]	pIC50 [2, 6]	pIC50 [2, 7]	pIC50 [3, 8]	pIC50 [3, 9]	IC50 [1, 10]	pIC50 [1]
Nc1nccc(-c2sc(N3CCOCC3)nc2-c2cccc(NS(=O)(=O)c3ccco3)c2F)n1 [Example 62, N-{3-[5-(2-Amino-4-pyrimidinyl)-2-(4-morpholinyl)-1,3-thiazol-4-yl]-2-fluorophenyl}-2-furansulfonamide]	> 7.00	≥ 8.50	6.00 to 7.00	6.00 to 7.00	6.00 to 7.00	6.00 to 7.00		
CC(C)CNc1nccc(-c2sc(C(C)(C)C)nc2-c2cccc(NS(=O)(=O)c3c(F)cccc3F)c2F)n1 [Example 134]	> 7.00		6.00 to 7.00	6.00 to 7.00	6.00 to 7.00	6.00 to 7.00	3.16 to 31.6 nM	
CC(C)c1nc(-c2ccc(F)c(NS(=O)(=O)c3c(F)cccc3F)c2)c(-c2ccnc(NCCN3CCCC3)n2)s1 [Example 164]			< 6.00	5.00 to 6.00	< 6.00	5.00 to 6.00		< 6.00
CC(C)CNc1nccc(-c2sc(N3CCOCC3)nc2-c2cccc(NS(=O)(=O)c3cc(F)ccc3F)c2)n1 [Example 206]	> 7.00		> 7.00	> 7.00	> 7.00	> 7.00	3.16 to 31.6 nM	
CS(=O)(=O)N1CCN(c2nc(-c3cccc(NS(=O)(=O)c4cc(F)ccc4F)c3F)c(-c3ccnc(N)n3)s2)CC1 [Example 99, N-(3-{5-(2-Amino-4-pyrimidinyl)-2-[4-(methylsulfonyl)-1-piperazinyl]-1,3-thiazol-4-yl}-2-fluorophenyl)-2,5-difluorobenzenesulfonamide]	> 7.00	≥ 8.50	6.00 to 7.00	6.00 to 7.00	6.00 to 7.00	6.00 to 7.00		
CC(C)c1nc(-c2ccc(F)c(NS(=O)(=O)c3cc(F)ccc3F)c2)c(-c2ccnc(NC3CCS(=O)(=O)CC3)n2)s1 [Example 205]	> 7.00		6.00 to 7.00	6.00 to 7.00	6.00 to 7.00	6.00 to 7.00	3.16 to 31.6 nM	
CC(C)c1nc(-c2ccc(F)c(NS(=O)(=O)c3c(F)cccc3F)c2)c(-c2ccnc(NCC3CC3)n2)s1 [Example 6, N-{5-[5-{2-[(Cyclopropylmethyl)amino]-4-pyrimidinyl}-2-(1-methylethyl)-1,3-thiazol-4-yl]-2-fluorophenyl}-2,6-difluorobenzenesulfonamide]	> 7.00	6.00 to 7.50	< 6.00	5.00 to 6.00	< 6.00	5.00 to 6.00		
CC(C)(C)c1nc(-c2cccc(NS(=O)(=O)c3ccoc3)c2Cl)c(-c2ccnc(N)n2)s1 [Example 264, N-{3-[5-(2-amino-4-pyrimidinyl)-2-(1,1-dimethylethyl)-1,3-thiazol-4-yl]-2-chlorophenyl}-3-furansulfonamide]		≥ 8.50		> 7.00		> 7.00		
O=C1CCCN1CCCNc1nccc(-c2sc(N3CCOCC3)nc2-c2cccc(NS(=O)(=O)c3cc(F)ccc3F)c2F)n1 [Example 188]	> 7.00	≥ 8.50	> 7.00	> 7.00	> 7.00	> 7.00		
CC(C)(C)c1nc(-c2cccc(NS(=O)(=O)c3c(F)cccc3F)c2Cl)c(-c2ccnc(N)n2)s1 [Example 236, N-{3-[5-(2-amino-4-pyrimidinyl)-2-(1,1-dimethylethyl)-1,3-thiazol-4-yl]-2-chlorophenyl}-2,6-difluorobenzenesulfonamide]		≥ 8.50		> 7.00		> 7.00		
Nc1nccc(-c2sc(N3CCOCC3)nc2-c2cccc(NS(=O)(=O)C3CCCCC3)c2F)n1 [Example 48, N-{3-[5-(2-Amino-4-pyrimidinyl)-2-(4-morpholinyl)-1,3-thiazol-4-yl]-2-fluorophenyl}cyclohexanesulfonamide]	6.00 to 7.00	6.00 to 7.50	6.00 to 7.00	6.00 to 7.00	6.00 to 7.00	6.00 to 7.00		
CC(C)c1nc(-c2ccc(F)c(NS(=O)(=O)c3cc(F)ccc3F)c2)c(-c2ccnc(NC3CCN(C(=O)OC(C)(C)C)CC3)n2)s1 [Example 124]	> 7.00	6.00 to 7.50	6.00 to 7.00	6.00 to 7.00	6.00 to 7.00	6.00 to 7.00		
CC(C)(C)c1nc(-c2cccc(NS(=O)(=O)c3c(F)cccc3F)c2)c(-c2ccnc(NCCS(C)(=O)=O)n2)s1 [Example 2, N-{3-[2-(1,1-Dimethylethyl)-5-(2-{[2-(methylsulfonyl)ethyl]amino}-4-pyrimidinyl)-1,3-thiazol-4-yl]phenyl}-2,6-difluorobenzenesulfonamide]	> 7.00	≥ 8.50	> 7.00	> 7.00	> 7.00	> 7.00		
CC(C)CNc1nccc(-c2sc(C(C)(C)C)nc2-c2cccc(NS(=O)(=O)c3cc(F)ccc3F)c2Cl)n1 [Example 23, N-[2-Chloro-3-(2-(1,1-dimethylethyl)-5-{2-[(2-methylpropyl)amino]-4-pyrimidinyl}-1,3-thiazol-4-yl)phenyl]-2,5-difluorobenzenesulfonamide]	> 7.00		6.00 to 7.00	6.00 to 7.00	6.00 to 7.00	6.00 to 7.00	3.16 to 31.6 nM	
CC(C)(C)OC(=O)NCCNc1nccc(-c2sc(C(C)(C)C)nc2-c2cccc(NS(=O)(=O)c3cc(F)ccc3F)c2F)n1 [Example 198]	> 7.00	≥ 8.50	6.00 to 7.00	6.00 to 7.00	6.00 to 7.00	6.00 to 7.00		
CC(C)c1nc(-c2cccc(NS(=O)(=O)c3cc(F)ccc3F)c2F)c(-c2ccnc(NCCNS(C)(=O)=O)n2)s1 [Example 191]	> 7.00	≥ 8.50	> 7.00	> 7.00	> 7.00	> 7.00		
CC(C)(C)c1nc(-c2cccc(NS(=O)(=O)c3cc(F)ccc3F)c2F)c(-c2ccnc(NCCNS(C)(=O)=O)n2)s1 [Example 199]	> 7.00	≥ 8.50	> 7.00	> 7.00	> 7.00	> 7.00		
CC(C)c1nc(-c2ccc(F)c(NS(=O)(=O)c3cc(F)ccc3F)c2)c(-c2ccnc(NCC3CCN(S(C)(=O)=O)CC3)n2)s1 [Example 129]	> 7.00		6.00 to 7.00	6.00 to 7.00	6.00 to 7.00	6.00 to 7.00	3.16 to 31.6 nM	
CC(C)(C)c1nc(-c2cccc(NS(=O)(=O)c3cc(F)ccc3F)c2Cl)c(-c2ccnc(N)n2)s1 [Example 241, N-{3-[5-(2-amino-4-pyrimidinyl)-2-(1,1-dimethylethyl)-1,3-thiazol-4-yl]-2-chlorophenyl}-2,5-difluorobenzenesulfonamide]		≥ 8.50		> 7.00		> 7.00		
CC(C)c1nc(-c2ccc(F)c(NS(=O)(=O)c3cc(F)ccc3F)c2)c(-c2ccnc(NC3CC(C)(C)N(C)C(C)(C)C3)n2)s1 [Example 132]	> 7.00	≥ 8.50	6.00 to 7.00	6.00 to 7.00	6.00 to 7.00	6.00 to 7.00		
COCC(C)Nc1nccc(-c2sc(C(C)C)nc2-c2ccc(F)c(NS(=O)(=O)c3c(F)cccc3F)c2)n1 (stereo not drawn) [Example 162]	6.00 to 7.00	6.00 to 7.50	6.00 to 7.00	6.00 to 7.00	6.00 to 7.00	6.00 to 7.00		
CC(C)(O)CCc1nccc(-c2sc(C(C)(C)C)nc2-c2cccc(NS(=O)(=O)c3c(F)cccc3F)c2F)n1 [Example 249, N-(3-{2-(1,1-dimethylethyl)-5-[2-(3-hydroxy-3-methylbutyl)-4-pyrimidinyl]-1,3-thiazol-4-yl}-2-fluorophenyl)-2,6-difluorobenzenesulfonamide]				> 7.00		> 7.00	3.16 to 31.6 nM	
CC(C)c1nc(-c2cccc(NS(=O)(=O)c3cccs3)c2)c(-c2ccnc(NCCS(C)(=O)=O)n2)s1 [Example 31, N-{3-[2-(1-Methylethyl)-5-(2-{[2-(methylsulfonyl)ethyl]amino}-4-pyrimidinyl)-1,3-thiazol-4-yl]phenyl}-2-thiophenesulfonamide]	> 7.00	≥ 8.50	> 7.00	> 7.00	> 7.00	> 7.00		
Nc1nccc(-c2sc(C3CCOCC3)nc2-c2cccc(NS(=O)(=O)c3c(F)cccc3F)c2Cl)n1 [Example 238, N-{3-[5-(2-amino-4-pyrimidinyl)-2-(tetrahydro-2H-pyran-4-yl)-1,3-thiazol-4-yl]-2-chlorophenyl}-2,6-difluorobenzenesulfonamide]		≥ 8.50		> 7.00		> 7.00		
CC(C)CNc1nccc(-c2sc(N(C)C)nc2-c2cccc(NS(=O)(=O)c3c(F)cccc3F)c2)n1 [Example 113, N-[3-(2-(Dimethylamino)-5-{2-[(2-methylpropyl)amino]-4-pyrimidinyl}-1,3-thiazol-4-yl)phenyl]-2,6-difluorobenzenesulfonamide]	> 7.00	6.00 to 7.50		6.00 to 7.00		6.00 to 7.00		

From patent US7994185B2, “Benzene sulfonamide thiazole and oxazole compounds” (Glaxo Smith Kline LLC, priority 2008, dated 2011)
